Assay results: ChEMBL document CHEMBL2157933, “The synthesis and antituberculosis activity of 5'-nor carbocyclic uracil derivatives” (Bioorg Med Chem, 2012)
≈ marks a conversion by molar mass, not a printed value.

Key:
Type in all cases: functional
[1] = system: Mycobacterium tuberculosis; assay: Antibacterial activity against multidrug-resistant Mycobacterium tuberculosis MS-115 under anaerobic condition assessed as growth inhibition at 10 to 20 ug/ml by BACTEC method
[2] = system: Mycobacterium tuberculosis; assay: Antibacterial activity against multidrug-resistant Mycobacterium tuberculosis MS-115 under anaerobic condition by BACTEC method
[3] = system: Mycobacterium tuberculosis; assay: Antibacterial activity against multidrug-resistant Mycobacterium tuberculosis MS-115 under anaerobic condition assessed as growth inhibition at 20 ug/ml by BACTEC method; details: read-out: GI
[4] = system: Mycobacterium tuberculosis; assay: Antibacterial activity against multidrug-resistant Mycobacterium tuberculosis MS-115 under anaerobic condition assessed as growth inhibition at 10 ug/ml by BACTEC method; details: read-out: GI
[5] = system: Mycobacterium tuberculosis; assay: Antibacterial activity against multidrug-resistant Mycobacterium tuberculosis MS-115 under anaerobic condition assessed as growth inhibition at 5 ug/ml by BACTEC method; details: read-out: GI
[6] = system: Mycobacterium tuberculosis; assay: Antibacterial activity against multidrug-resistant Mycobacterium tuberculosis MS-115 under anaerobic condition assessed as growth inhibition at 0.1 ug/ml by BACTEC method; details: read-out: GI
[7] = system: Mycobacterium tuberculosis; assay: Antibacterial activity against multidrug-resistant Mycobacterium tuberculosis MS-115 under anaerobic condition assessed as growth inhibition at 2 ug/ml by BACTEC method; details: read-out: GI
[8] = system: Mycobacterium tuberculosis; assay: Antibacterial activity against multidrug-resistant Mycobacterium tuberculosis MS-115 under anaerobic condition assessed as growth inhibition at 100 ug/ml by BACTEC method; details: read-out: GI
[9] = system: Mycobacterium tuberculosis; assay: Antibacterial activity against multidrug-resistant Mycobacterium tuberculosis MS-115 under anaerobic condition assessed as growth inhibition at 1 ug/ml by BACTEC method; details: read-out: GI

**Q.** Which “growth inhibition (GI)” value [1] does the source give for `CCCCCCCCCCCCC#Cc1cn(C2C=CC(O)C2)c(=O)[nH]c1=O` (racemic) here?
**A.** Its value is 100%.

**Q.** For `CCCCCCCCCCCCC#Cc1cn(C2C=CC(O)C2)c(=O)[nH]c1=O` (single isomer, unassigned; (-)), which MIC99 [2] is on record?
**A.** The MIC99 was 10 µg/mL (≈ 25.9 µM).

**Q.** What about the inhibition of growth at 20 µg/mL [3] of the same molecule?
**A.** Its inhibition of growth at 20 µg/mL is 100%.

**Q.** What about the inhibition of growth at 10 µg/mL [4] of the same molecule?
**A.** The inhibition of growth at 10 µg/mL was 99%.

**Q.** How did the inhibition of growth at 5 µg/mL [5] turn out when `CC[C@@H](CO)NCCN[C@@H](CC)CO` [ETHAMBUTOL] was run?
**A.** Its inhibition of growth at 5 µg/mL is 0%.

**Q.** `NNC(=O)c1ccncc1` [ISONIAZID] was tested. Which inhibition of growth at 0.1 µg/mL [6] did it give?
**A.** The inhibition of growth at 0.1 µg/mL was 0%.

**Q.** How did the MIC99 [2] turn out when `CC1COc2c(N3CCN(C)CC3)c(F)cc3c(=O)c(C(=O)O)cn1c23` (stereo unspecified) [OFLOXACIN] was run?
**A.** Its MIC99 is 2 µg/mL (≈ 5.53 µM).

**Q.** What about the inhibition of growth at 2 µg/mL [7] of the same molecule?
**A.** Its inhibition of growth at 2 µg/mL is 100%.

**Q.** For `NC(=O)c1cnccn1` [PYRAZINAMIDE], which inhibition of growth at 100 µg/mL [8] is on record?
**A.** Its inhibition of growth at 100 µg/mL is 0%.

**Q.** With `CO[C@H]1/C=C/O[C@@]2(C)Oc3c(C)c(O)c4c(O)c(c(/C=N/N5CCN(C)CC5)c(O)c4c3C2=O)NC(=O)/C(C)=C\C=C\[C@H](C)[C@H](O)[C@@H](C)[C@@H](O)[C@@H](C)[C@H](OC(C)=O)[C@@H]1C` [RIFAMPIN] as the molecule, how does the inhibition of growth at 1 µg/mL [9] read?
**A.** The inhibition of growth at 1 µg/mL was 0%.

**Q.** How did the inhibition of growth at 0.1 µg/mL [6] turn out when `CN[C@@H]1[C@H](O[C@H]2[C@H](O[C@H]3[C@H](O)[C@@H](O)[C@H](N=C(N)N)[C@@H](O)[C@@H]3N=C(N)N)O[C@@H](C)[C@]2(O)C=O)O[C@@H](CO)[C@H](O)[C@H]1O` [STREPTOMYCIN] was run?
**A.** The inhibition of growth at 0.1 µg/mL was 0%.
